Reference: patent US10556860B2, “hTERT modulators and methods of use” (Arizona Board of Regents on Behalf of the University of …, priority 2015, dated 2020)
pKd: −log10 of the molar value.

Tests used:
[1] = tested on: hTERT mRNA; assay: qPCR of hTERT mRNA in MCF7 cells; format: cell-based, human
Description: qPCR. MCF7 and melanoma cells were treated with GTC365 and BRACO-19 for 72 h. Total RNA was extracted using an RNeasy mini-prep kit (Qiagen) and quantitated by measuring absorbance at 260 nm. cDNA was synthesized using a Takara PrimeScript™ RT Reagent Kit with gDNA eraser and then used as a template for qPCR. The qPCR was performed using Kapa Probe Fast qPCR Master Mix with ABI Taqman probes of hTERT (Hs00972656_m1), BCL2 (HS00608023_m1, FAM-labeled) or MYC (Hs00153408_m1), and GAPDH (Hs02758991_g1, VIC-labeled). The Ct values were measured by running Rotor-Gene Q, and the relative quantity of hTERT, BCL2, and MYC mRNA was obtained compared to GAPDH as an internal control.
BCL2 is a downstream molecule to hTERT such that BCL2 expression is activated by hTERT to repress apoptosis. To further define the effect of GTC365 on the transcription of hTERT, the relative mRNA levels of MYC and BCL2 were determined by quantitative PCR analysis in MCF7 cells after treatment with GTC365 for 72 h. […] A series of GTC260 analogs were synthesized and their effect on hTERT gene expression in MCF7A and U87 cells determined (FIG. 7). […] Therefore, GTC365 directly repressed the transcription of hTERT and then led to a downstream decrease of BCL2 expression.

[2] = tested on: G138/139A 5-12 G-quadruplex; assay: CD kinetics, temperature-jump, G138/139A; format: biochemical, human; conditions: 2 equiv
Description: FIGS. 10A and 10B are a set of graphs showing (A) comparison of kinetics of initial folding rate of the WT 5-12 G-quadruplex with GTC365 and BRACO-19 by the temperature-jump method. (B) Enhanced initial folding rate of the 5-12 G-quadruplexes carrying different hTERT mutants by GTC365. The time-course CD signal of preheated oligo with compound or DMSO in a buffer containing 10 mM Tris-HCl (pH 7.5) and 5 mM KCl was monitored at 262 nm and 25° C.
For the kinetics analysis using the temperature-jump method, theoligo in a buffer containing 10 mM Tris-HCl (pH 7.5) was heated forl min at 95° C., and then a mixture of KCl and compound was addedand incubated for 1 min. Meanwhile, the CD cuvette was also heatedat 95° C. As soon as the sample in the CD cuvette at the hightemperature was placed in the CD chamber, a time-dependent CDsignal at 262 nm was recorded immediately. The initial folding ratewas determined by one-phase association curve fitting (eq 1) of thekinetics curve using GraphPad Prism 5: Y=Y0+(Plateau−Y0)*(1−e^−kx) (1) where Y is the CD signal at any time point x, Y0 is the Y value whentime (x) is zero, plateau is the Y value at infinite time, and k is the rateconstant.
To evaluate the comparative effects of GTC365 relative to BRACO-19 on the cooperative folding process, we carried out two different experiments. […]

[3] = target: WT 5-12 G-quadruplex of hTERT core promoter (FAM/TAMRA probe); assay: FRET assay for compound screening and Kd, WT probe; format: binding, human
Description: FRET assay for compound screening and determination of Kd value. FRET probes of WT, G124/125A, and G146A of the 5-12 G-quadruplex were synthesized and labeled with FAM (Ex. 490 nm/Em. 520 nm) and TAMRA (Ex. 560 nm/Em. 580 nm) at each end by MGW Operon Inc. The WT probe (50 nM) was annealed in a buffer containing 10 mM Tris-HCl (pH 7.5) and 5 mM KCl by heating at 95° C. for 5 min and slowly cooling to room temperature. Compounds (50 μM) and probe were incubated for 1 h at room temperature. The same volume of DMSO served as a control. For Kd value determination, the WT, G124/125A, and G146A probes were annealed, and then several concentrations of compound were treated for 1 h at room temperature. Dose-dependent fluorescence intensity at 520 nm was measured by a microplate reader (BioTek Synergy HT). The data were corrected with the blank signal of buffer and compound. The relative fluorescence intensity compared to DMSO was used for binding curve fitting to determine Kd value using GraphPad Prism software.
The hTERT core promoter region includes 12 runs of consecutive guanines that form two G-quadruplexes in tandem on the G-rich strand. […] When the G-quadruplex is folded, two fluorophores are in proximity, which leads to a decrease in FAM fluorescence. […]

| Structure (SMILES) | effect on hTERT transcription / mRNA level [1] | effect on initial folding rate [2] | decrease of hTERT mRNA level ([1]; 72 h, 1 μM) | pKd ([3]; WT probe, FAM- and TAMRA-labeled oligomer) | reduction of fluorescence intensity (FRET) ([3]; compounds 50 μM, WT probe 50 nM, 10 mM Tris-HCl, 5 mM KCl, 1 h) |
| --- | --- | --- | --- | --- | --- |
| CN(C)c1ccc(Nc2c3ccc(NC(=O)CCN4CCCC4)cc3nc3cc(NC(=O)CCN4CCCC4)ccc23)cc1 [BRACO-19, reference compound] | decreased |  |  |  |  |
| N=C(N)NCCCS(=O)(=O)Nc1ccc(Nc2c3ccccc3nc3cc([N+](=O)[O-])ccc23)cc1 [GTC365] | significant effect | insignificant | up to 67% | ~6.40 | 94% |
